# Measured values from US10308667B2, “Oxadiazolopyridine derivatives for use as ghrelin O-acyl transferase (GOAT) inhibitors” (Boehringer Ingelheim International GmbH, priority 2016, dated 2019).
# pIC50: −log10 of the molar value.
# Biological target: human GOAT (Homo sapiens (Human), UniProt Q96T53)
# Assay: Determination of hGOAT Activity in HEK293 Cells after Incubation with Test Compound
# Format: cell-based
# Settings: HEK293 cells stably transfected with preproghrelin and human GOAT; octanoate-BSA 100 μM; acyl-ghrelin in medium by ELISA after 5 hours
# Procedure, shortened: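 HEK293 cells stably expressing preproghrelin and human GOAT were given serum-free medium with 100 μM octanoate-BSA plus compound (0.3% DMSO) for 5 h. Acyl-ghrelin in the medium was quantified by ELISA (A405, standard curve) as % of vehicle. IC50 was fitted from 8 concentrations.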
# Sequence of human GOAT (Q96T53 whole entry): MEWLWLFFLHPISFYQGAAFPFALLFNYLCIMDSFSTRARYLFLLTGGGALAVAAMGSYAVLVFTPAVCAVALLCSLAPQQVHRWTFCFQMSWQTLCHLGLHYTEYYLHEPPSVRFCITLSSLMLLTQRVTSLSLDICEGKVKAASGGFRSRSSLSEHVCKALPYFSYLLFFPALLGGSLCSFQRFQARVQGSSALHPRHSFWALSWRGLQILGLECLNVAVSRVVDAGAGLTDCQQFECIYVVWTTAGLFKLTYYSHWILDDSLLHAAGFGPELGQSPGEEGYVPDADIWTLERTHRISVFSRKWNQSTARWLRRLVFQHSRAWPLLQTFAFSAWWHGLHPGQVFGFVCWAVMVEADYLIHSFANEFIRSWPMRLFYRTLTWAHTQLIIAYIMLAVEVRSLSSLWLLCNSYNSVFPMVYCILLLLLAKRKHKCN
row,pIC50,Structure (SMILES)
1,8.55,"Cc1nc2nonc2c(N)c1Cc1ccccn1 [Example 58, 5-methyl-6-[(pyridin-2-yl)methyl]-[1,2,5]oxadiazolo[3,4-b]pyridin-7-amine]"
2,9.66,"Cc1nc2nonc2c(N)c1Cc1ccc(C#N)c(OCC2CC2(F)F)n1 (stereo not drawn) [Example 112, 6-(7-Amino-5-methyl-[1,2,5]oxadiazolo[3,4-b]pyridin-6-ylmethyl)-2-(2,2-difluoro-cyclopropylmethoxy)-nicotinonitrile]"
3,9.32,"Cc1nc2nonc2c(N)c1Cc1cccc(C(F)(F)F)n1 [Example 52, 5-Methyl-6-(6-trifluoromethyl-pyridin-2-ylmethyl)-[1,2,5]oxadiazolo[3,4-b]pyridin-7-ylamine]"
4,9.09,"Cc1nc2nonc2c(N)c1Cc1nc(C(F)F)c(Cl)c(C(F)F)n1 [Example 167, 6-[5-chloro-4,6-bis(difluoromethyl)pyrimidin-2-yl]methyl-5-methyl-[1,2,5]oxadiazolo[3,4-b]pyridin-7-amine]"
5,10.04,"Cc1nc2nonc2c(N)c1Cc1ccc(OC(F)F)c(N)n1 [Example 119, 6-(6-Amino-5-difluoromethoxy-pyridin-2-ylmethyl)-5-methyl-[1,2,5]oxadiazolo[3,4-b]pyridin-7-ylamine]"
6,9.85,"Cc1nc2nonc2c(N)c1Cc1ccc(-c2c(C)noc2C)c(N)n1 [Example 66, 6-[6-Amino-5-(3,5-dimethyl-isoxazol-4-yl)-pyridin-2-ylmethyl]-5-methyl-[1,2,5]oxadiazolo[3,4-b]pyridin-7-ylamine]"
7,9.55,"Cc1nc2nonc2c(N)c1Cc1ccc(C#N)c(OCCC(F)(F)F)n1 [Example 110, 6-(7-Amino-5-methyl-[1,2,5]oxadiazolo[3,4-b]pyridin-6-ylmethyl)-2-(3,3,3-trifluoro-propoxy)-nicotinonitrile]"
8,10.59,"Cc1nc2nonc2c(N)c1Cc1ccc(C#N)c(OCCCF)n1 [Example 108, 6-(7-Amino-5-methyl-[1,2,5]oxadiazolo[3,4-b]pyridin-6-ylmethyl)-2-(3-fluoro-propoxy)-nicotinonitrile]"
9,9.85,"Cc1nc2nonc2c(N)c1Cc1ccc(C#N)c(N2CCNC(=O)CC2)n1 [Example 141, 6-(7-Amino-5-methyl-[1,2,5]oxadiazolo[3,4-b]pyridin-6-ylmethyl)-2-(5-oxo-[1,4]diazepan-1-yl)-nicotinonitrile]"
10,9.77,"Cc1nc2nonc2c(N)c1Cc1ccc(Br)c(NCC2(C)CCOC2)n1 (stereo not drawn) [Example 126, 6-{5-Bromo-6-[(3-methyl-tetrahydro-furan-3-ylmethyl)-amino]-pyridin-2-ylmethyl}-5-methyl-[1,2,5]oxadiazolo[3,4-b]pyridin-7-ylamine]"
11,10.59,"Cc1nc2nonc2c(N)c1Cc1ccc(Br)c(N2CCOCC2)n1 [Example 123, 6-(5-Bromo-6-morpholin-4-yl-pyridin-2-ylmethyl)-5-methyl-[1,2,5]oxadiazolo[3,4-b]pyridin-7-ylamine]"
12,10.07,"Cc1nc2nonc2c(N)c1Cc1ccc(C#N)c(OCC(C)(F)F)n1 [Example 103, 6-(7-Amino-5-methyl-[1,2,5]oxadiazolo[3,4-b]pyridin-6-ylmethyl)-2-(2,2-difluoro-propoxy)-nicotinonitrile]"
13,10.42,"Cc1nc2nonc2c(N)c1Cc1ccc(Br)c(NC2CC2)n1 [Example 125, 6-(5-Bromo-6-cyclopropylamino-pyridin-2-ylmethyl)-5-methyl-[1,2,5]oxadiazolo[3,4-b]pyridin-7-ylamine]"
14,8.16,"Cc1nc2nonc2c(N)c1Cc1cccc([S+](C)[O-])n1 (stereo not drawn) [Example 85, 6-(6-Methanesulfinyl-pyridin-2-ylmethyl)-5-methyl-[1,2,5]oxadiazolo[3,4-b]pyridin-7-ylamine]"
15,7.72,"Cc1nc2nonc2c(N)c1Cc1cccc(S(C)(=O)=O)n1 [Example 86, 6-(6-Methanesulfonyl-pyridin-2-ylmethyl)-5-methyl-[1,2,5]oxadiazolo[3,4-b]pyridin-7-ylamine]"
16,7.51,"Cc1nc2nonc2c(N)c1Cc1ccc(C#N)c(=O)[nH]1 [Example 113, 6-(7-Amino-5-methyl-[1,2,5]oxadiazolo[3,4-b]pyridin-6-ylmethyl)-2-oxo-1,2-dihydro-pyridine-3-carbonitrile]"
17,9.77,"Cc1nc2nonc2c(N)c1Cc1ccc(NCC(F)F)c(C#N)n1 [Example 154, 6-(7-Amino-5-methyl-[1,2,5]oxadiazolo[3,4-b]pyridin-6-ylmethyl)-3-(2,2-difluoro-ethylamino)-pyridine-2-carbonitrile]"
18,9.17,"Cc1nc2nonc2c(N)c1Cc1ccc(OC(F)F)cn1 [Example 14, 6-(5-Difluoromethoxy-pyridin-2-ylmethyl)-5-methyl-[1,2,5]oxadiazolo[3,4-b]pyridin-7-ylamine]"
19,8.70,"Cc1nc2nonc2c(N)c1Cc1cc(C(F)(F)F)c(C#N)cn1 [Example 74, 6-(7-Amino-5-methyl-[1,2,5]oxadiazolo[3,4-b]pyridin-6-ylmethyl)-4-trifluoromethyl-nicotinonitrile]"
20,9.48,"Cc1nc2nonc2c(N)c1Cc1ccc(C#N)c(OC(F)F)n1 [Example 73, 6-(7-Amino-5-methyl-[1,2,5]oxadiazolo[3,4-b]pyridin-6-ylmethyl)-2-difluoromethoxy-nicotinonitrile]"

row,pIC50,Structure (SMILES)
1,8.77,"Cc1nc2nonc2c(N)c1Cc1ccc(C#N)c(C#N)n1 [Example 158, 6-(7-Amino-5-methyl-[1,2,5]oxadiazolo[3,4-b]pyridin-6-ylmethyl)-pyridine-2,3-dicarbonitrile]"
2,8.37,"Cc1nc2nonc2c(N)c1Cc1ccc(OC(F)F)c(=O)[nH]1 [Example 120, 6-(7-Amino-5-methyl-[1,2,5]oxadiazolo[3,4-b]pyridin-6-ylmethyl)-3-difluoromethoxy-1H-pyridin-2-one]"
3,9.66,"Cc1nc2nonc2c(N)c1Cc1ccc(OC(F)(F)F)cn1 [Example 17, 5-Methyl-6-(5-trifluoromethoxy-pyridin-2-ylmethyl)-[1,2,5]oxadiazolo[3,4-b]pyridin-7-ylamine]"
4,10.00,"Cc1nc2nonc2c(N)c1Cc1cccc(C2(C#N)CCCC2)n1 [Example 64, 1-[6-(7-Amino-5-methyl-[1,2,5]oxadiazolo[3,4-b]pyridin-6-ylmethyl)-pyridin-2-yl]-cyclopentanecarbonitrile]"
5,8.96,"Cc1nc2nonc2c(N)c1Cc1ccc(C#N)c(F)n1 [Example 72, 6-(7-Amino-5-methyl-[1,2,5]oxadiazolo[3,4-b]pyridin-6-ylmethyl)-2-fluoro-nicotinonitrile]"
6,9.21,"Cc1nc2nonc2c(N)c1Cc1ccc(C(F)(F)F)cn1 [Example 6, 5-Methyl-6-(5-trifluoromethyl-pyridin-2-ylmethyl)-[1,2,5]oxadiazolo[3,4-b]pyridin-7-ylamine]"
7,9.38,"Cc1nc2nonc2c(N)c1Cc1ccc(Cl)cn1 [Example 8, 6-(5-Chloro-pyridin-2-ylmethyl)-5-methyl-[1,2,5]oxadiazolo[3,4-b]pyridin-7-ylamine]"
8,9.49,"Cc1nc2nonc2c(N)c1Cc1ccc2c(n1)OCCO2 [Example 18, 6-(2,3-Dihydro-[1,4]dioxino[2,3-b]pyridin-6-ylmethyl)-5-methyl-[1,2,5]oxadiazolo[3,4-b]pyridin-7-ylamine]"
9,8.41,"Cc1nc2nonc2c(N)c1Cc1ccc(OCC(F)(F)F)c(C#N)n1 [Example 114, 6-(7-Amino-5-methyl-[1,2,5]oxadiazolo[3,4-b]pyridin-6-ylmethyl)-3-(2,2,2-trifluoro-ethoxy)-pyridine-2-carbonitrile]"
10,9.92,"Cc1nc2nonc2c(N)c1Cc1ccc(C#N)c(Cl)n1 [Example 24, 6-(7-Amino-5-methyl-[1,2,5]oxadiazolo[3,4-b]pyridin-6-ylmethyl)-2-chloro-nicotinonitrile]"
11,9.66,"Cc1nc2nonc2c(N)c1Cc1ccc(Br)c(C#N)n1 [Example 71, 6-(7-Amino-5-methyl-[1,2,5]oxadiazolo[3,4-b]pyridin-6-ylmethyl)-3-bromopyridine-2-carbonitrile]"
12,9.14,"Cc1nc2nonc2c(N)c1Cc1cccc(C(N)=O)n1 [Example 56, 6-(7-Amino-5-methyl-[1,2,5]oxadiazolo[3,4-b]pyridin-6-ylmethyl)-pyridine-2-carboxylic Acid Amide]"
13,8.44,"Cc1nc2nonc2c(N)c1Cc1cc(C#N)c(C(F)(F)F)cn1 [Example 2, 2-(7-Amino-5-methyl-[1,2,5]oxadiazolo[3,4-b]pyridin-6-ylmethyl)-5-trifluoromethyl-isonicotinonitrile]"
14,8.48,"Cc1nc2nonc2c(N)c1Cc1ccc(S(C)(=O)=O)cn1 [Example 88, 6-(5-Methanesulfonyl-pyridin-2-ylmethyl)-5-methyl-[1,2,5]oxadiazolo[3,4-b]pyridin-7-ylamine]"
15,9.62,"CNC(=O)c1cccc(Cc2c(C)nc3nonc3c2N)n1 [Example 54, 6-(7-Amino-5-methyl-[1,2,5]oxadiazolo[3,4-b]pyridin-6-ylmethyl)-pyridine-2-carboxylic acid methylamide]"
16,9.55,"CSc1cccc(Cc2c(C)nc3nonc3c2N)n1 [Example 16, 5-Methyl-6-(6-methylsulfanyl-pyridin-2-ylmethyl)-[1,2,5]oxadiazolo[3,4-b]pyridin-7-ylamine]"
17,10.07,"Cc1nc2nonc2c(N)c1Cc1ccc(Oc2ccccc2)c(C#N)n1 [Example 118, 6-(7-Amino-5-methyl-[1,2,5]oxadiazolo[3,4-b]pyridin-6-ylmethyl)-3-phenoxy-pyridine-2-carbonitrile]"
18,8.52,"Cc1nc2nonc2c(N)c1Cc1ccc(S(C)(=O)=O)c(S(C)(=O)=O)n1 [Example 160, 6-(5,6-Bis-methanesulfonyl-pyridin-2-ylmethyl)-5-methyl-[1,2,5]oxadiazolo[3,4-b]pyridin-7-ylamine]"
19,10.57,"Cc1nc2nonc2c(N)c1Cc1ccc(C#N)c(N2CC(F)(F)C2)n1 [Example 142, 6-(7-Amino-5-methyl-[1,2,5]oxadiazolo[3,4-b]pyridin-6-ylmethyl)-2-(3,3-difluoro-azetidin-1-yl)-nicotinonitrile]"
